Assays:
[1] = read-out: KD for zinc; cited from earlier work
HEK293 cells = experiment: fura-2 intracellular Ca2+ imaging in HEK293 cells; assay type: cell-based, human; details: poly-APS 0.5 μg/ml, n=11
Procedure: HEK293 cells (human embryonic kidney cell line) were maintained in Dulbecco's modified Eagle's medium (DMEM). In preparation for transfection experiments cells were seeded 24 hours prior to experimentation at a density of 5×10^5 cells per well in six well plates, the same seeding density was used for confocal and electrophysiology/calcium imaging experiments in 35 mm culture dishes.
Cultured DRG neurones and HEK 293 cells were incubated for 1 hour in NaCl-based extracellular solution containing 10 μM fura-2AM (Sigma, 1 mM stock in dimethylformamide). The cells were then washed for 20 minutes to remove the extracellular fura-2AM and to allow cytoplasmic de-esterification of the Ca^2+ sensitive fluorescent dye. The cells were constantly perfused (1-2 ml/min) and viewed under an inverted Olympus BX50W1 microscope with a KAI-1001 S/N 5B7890-4201 Olympus camera attached. The fluorescence ratiometric images from the data obtained at excitation wavelengths of 340 nm and 380 nm were viewed and analysed using OraCal pro, Merlin morphometry temporal mode (Life Sciences resources, version 1.20).

cultured DRG neurones [2] = experiment: Whole-cell recording of membrane potential and input resistance in cultured DRG neurones; assay type: cell-based, rat; details: 1.5 mM zinc, before poly-APS, n=7
Procedure: (§1) Primary cultures of dorsal root ganglion (DRG) neurones were prepared following enzymatic and mechanical dissociation of dorsal root ganglia from decapitated 2-day old Sprague Dawley rats. The sensory neurones were plated on laminin-polyornithine coated coverslips and bathed in F14 culture medium (Imperial Laboratories) supplemented with 10% horse serum (Gibco), penicillin (5000 IU/ml), streptomycin ([…]), NaHCO3 (14 mM) and nerve growth factor (20 ng/ml). The cultures were maintained for up to 2 weeks at 37° C. in humidified air with 5% CO2, and re-fed with fresh culture medium every 5-7 days.
(§2) All experiments were conducted at room temperature (approximately 23° C.). The whole-cell recording technique was used to study the actions of poly-APS and halitoxin preparations on membrane potential, input resistance (evaluated from 100-300 ms electrotonic potentials evoked by −30 to −200 pA current commands) and holding current. […] Poly-APS and halitoxin were applied to the extracellular environment by low pressure ejection via a blunt micropipette (tip diameter about […]) positioned approximately […] from the neurone being recorded. […]
The electrophysiological data were stored on digital audio tape (DAT) using a DTR-1200 DAT recorder (Biologic) and subsequently analysed using Cambridge Electronic Design voltage clamp software (version 6). […]

cultured DRG neurones [3] = experiment: Voltage clamp recording of poly-APS evoked inward/holding current in DRG neurones; assay type: cell-based, rat; details: 1.5 mM zinc continually present, before poly-APS, n=6
Procedure: as §1
as §2, with “current. Whole cell recordings were made using an Axoclamp-2A switching voltage clamp amplifier operated at a sampling rate of 15-20 kHz.” for “current.”

Compound | Kd [1] [nM] | effect of zinc on rise in intracellular Ca2+ produced by poly-APS (HEK293 cells) | resting membrane potential in the presence of zinc (cultured DRG neurones [2]) [mV] | resting holding current at −90 mV with zinc (cultured DRG neurones [3]) [pA]
Cc1ccc(N(CC(=O)O)CC(=O)O)c(OCCOc2cc3cc(-c4ncc(C(=O)O)o4)oc3cc2N(CC(=O)O)CC(=O)O)c1 [fura-2] | ~2 | – | – | –
[Zn+2] [zinc] | – | attenuated | −47±7 | −120±30
